Bounds are passed on as bounds.

The experiment addresses T1, Histone-arginine methyltransferase CARM1 (Mus musculus, UniProt Q9WVG6).
T1 sequence (Q9WVG6 whole entry): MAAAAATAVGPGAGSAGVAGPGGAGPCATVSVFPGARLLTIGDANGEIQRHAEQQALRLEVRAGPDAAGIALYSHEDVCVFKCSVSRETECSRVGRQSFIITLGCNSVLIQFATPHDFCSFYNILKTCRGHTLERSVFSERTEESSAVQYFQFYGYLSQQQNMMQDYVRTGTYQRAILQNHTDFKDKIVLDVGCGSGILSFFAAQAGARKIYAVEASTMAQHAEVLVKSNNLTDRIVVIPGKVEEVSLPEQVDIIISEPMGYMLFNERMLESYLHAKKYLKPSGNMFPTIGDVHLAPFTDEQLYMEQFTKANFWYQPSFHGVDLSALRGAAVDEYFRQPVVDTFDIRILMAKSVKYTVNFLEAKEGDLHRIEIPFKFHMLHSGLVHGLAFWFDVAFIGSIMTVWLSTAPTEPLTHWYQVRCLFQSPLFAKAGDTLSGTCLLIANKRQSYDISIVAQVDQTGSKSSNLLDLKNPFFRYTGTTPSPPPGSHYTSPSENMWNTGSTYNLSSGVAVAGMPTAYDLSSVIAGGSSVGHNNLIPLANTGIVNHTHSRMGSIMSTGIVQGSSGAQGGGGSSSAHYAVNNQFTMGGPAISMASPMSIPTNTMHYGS
The experiment in a line: Inhibition of CARM-1 Enzymatic Activity. To be noted: pH 9; 22 °C. How it is done: Histone H3 is used as the substrate for CARM-1 enzyme, and the methylation is monitored using tritiated S-Adenosyl-Methionine (SAM) as a methyl donor. The enzyme mixture containing test compound is left to pre-incubate for 10 minutes, followed by the addition of Histone H3/[3H] SAM mixture. After incubation, the mixture is spotted onto P30 Filtermat paper. The incorporated radioactivity is read using a Wallac Microbeta counter. The data is analyzed to generate IC50 values.
On to `C[C@H](N)C(=O)NCc1cccc(-n2nc(C(F)(F)F)cc2C(=O)NCc2ccccc2)c1`, for which the IC50 turned out to be 0.08 µM.

Compound `C[C@H](N)C(=O)NCc1cc(-n2nc(C(F)(F)F)cc2C(=O)NCc2ccccn2)cs1` [1-(5-{[(2S)-2-aminopropanamido]methyl}thiophen-3-yl)-N-(pyridin-2-ylmethyl)-3-(trifluoromethyl)-1H-pyrazole-5-carboxamide] registered an IC50 of 3.35 µM.

The compound `COc1ccccc1CNC(=O)c1cc(C(F)(F)F)nn1-c1cccc2c1CN(C(=O)[C@H](C)N)C2` [1-{2-[(2S)-2-aminopropanoyl]-2,3-dihydro-1H-isoindol-4-yl}-N-[(2-methoxyphenyl)methyl]-3-(trifluoromethyl)-1H-pyrazole-5-carboxamide] came in with an IC50 of over 10 µM.

One may read the IC50 as the midpoint of a concentration-inhibition curve. A lower IC50 goes with greater potency in that assay.

Values taken from BindingDB's records for doi:10.1016/j.bmcl.2008.12.075 (Methylgene, 2009).
